Experiments:
[1] = system: rat model of STZ-induced diabetes; experiment: Cataract by lens opacity (slit-lamp biomicroscope) in rat model of STZ-induced diabetes; format: in vivo, Sprague Dawley rats; conditions: 7 weeks
Protocol: (§1) Eight to ten-week old male Sprague Dawley rats were used in the model. Rat handling was performed according to guidelines of the National Institute of Health (NIH) and the Association for Assessment and Accreditation of Laboratory Animal Care (AAALAC). Diabetes was induced by intraperitoneal injection of 50 mg/kilogram (mg/kg) STZ (in 0.1 molar citrate buffer), which is a dose generally sufficient to destroy all insulin-producing beta cells and induce a diabetic disease-like state. Two weeks later, glucose levels were measured and rats displaying a level lower than 200 mg per deciliter (dL) were excluded from the study. The remaining rats were randomly divided into 3 groups (according to body weight and serum glucose levels): a control group, a corrole group and an LPA group. Each group received a 7-week course of treatment. The control group (13 rats) received water with no active ingredient. The corrole group (14 rats) received 20 mg/kg/day of the corrole designated 1-Fe. 1-Fe was synthesized using the procedure described in Mahammed et al. (Mahammed, Goldberg, & Gross, 2001). […]
Cataract was evaluated a day before termination of the trial in live rats by measurement of opacities of the rat's lenses of each eye with a slit-lamp biomicroscope following the application of tropicamide eye drops. […]
A rat having a score in at least one eye of 1 or higher was considered to have developed a cataract. The percentage of rats in each group having a cataract (cataract incidence) as determined by opacity measurements for each group is shown in FIG. 1A. […]
The degree of cataract for both eyes as determined by averaging each group's cataract scoring of both eyes of each rat as determined by opacity measurement is shown in FIG. 1B.
As cataract may develop at a different rate in each of the animals' eyes, the degree of cataract for the rats' worse eye was evaluated. The degree of cataract for the rats' worse eye was determined by averaging each group's cataract scoring of each animal's worse eye as determined by opacity measurement, and is shown in FIG. 1C. […]

[2] = system: rat model of STZ-induced diabetes; experiment: Creatinine clearance rate (CrCl), kidney damage in rat model of STZ-induced diabetes; format: in vivo; conditions: after 7 weeks of treatment
Protocol: as §1, with “treatment.” for “treatment. The control group (13 rats) received water with no active ingredient. The corrole group (14 rats) received 20 mg/kg/day of the corrole designated 1-Fe. 1-Fe was synthesized using the procedure described in Mahammed et al. (Mahammed, Goldberg, & Gross, 2001).”
A rat model was performed as in example 1, but rather than testing for eye damage, blood testing was used to test for creatinine levels. […] Creatinine clearance rate (CrCl), an established measure for evaluating renal function, was calculated for rats in all groups of the trial by dividing the amount of creatinine in the urine (mg/minute) by its concentration in the serum (mg/ml).
CrCl was measured: a) before induction of diabetes; b) 2 weeks later when the treatment commenced; and c) following 7 weeks of treatment (9 weeks from STZ injection).

[3] = system: rat model of STZ-induced diabetes; experiment: Cataractous damage by histological examination (H&E) of lenses in rat model of STZ-induced diabetes; format: in vivo, Sprague Dawley rats; conditions: 7 weeks
Protocol: as §1, with “treatment.” for “treatment. The control group (13 rats) received water with no active ingredient. The corrole group (14 rats) received 20 mg/kg/day of the corrole designated 1-Fe. 1-Fe was synthesized using the procedure described in Mahammed et al. (Mahammed, Goldberg, & Gross, 2001).”
The development of cataractous damage was further evaluated by histological examination. […]
A rat having a score in at least one eye of 1 or higher was considered to have suffered a cataractous damage. The percentage of rats in each group having a cataractous damage (cataract damage incidence) as determined by histological examination of lenses for each group is shown in FIG. 1D.
The degree of cataractous damage for both eyes as determined by averaging each group's cataract scoring of both eyes of each rat as determined by histological examination is shown in FIG. 1E. […]

[4] = Body weight in rat model of STZ-induced diabetes; format: in vivo, Sprague Dawley rats; conditions: STZ-diabetic rats, 7-week treatment
Protocol: as §1, with “2001). The LPA group (13 rats) received 50 mg/kg/day LPA. LPA was formulated for administration by dissolving in 1 millimolar sodium hydroxide (NaOH) which was then brought to a pH of 7.5.” for “2001).”

development of cataract = conditions: clinical studies, reported in the literature; cited from earlier work
DN in a rat model = conditions: administered in levels sufficient to be present in the kidney; cited from earlier work

With `O=C(O)CCCCC1CCSS1` (stereo not drawn) [LPA, alpha lipoic acid] the “Reduction in degree of cataract, both eyes (opacity score 0-4), relative to control group” value ([1]; 1-Fe 20 mg/kg/day (p=0.014), LPA 50 mg/kg/day (p=0.1)) was 28%, the “Degree of cataract in worse eye relative to control group (in words)” value ([1]; LPA 50 mg/kg/day) was “not significantly reduced” and the “Effect on cataract incidence (opacity measurement)” value ([1]; relative to control group, LPA 50 mg/kg/day) was “did not have a significant effect”. The CrCl ([2]; STZ-diabetic rats, 1-Fe 20 mg/kg/day, LPA 50 mg/kg/day) was 1.36 mL/min, the “Increase in creatinine clearance relative to the control group” value ([2]; 1-Fe p=0.027, LPA p=0.078) was 89% and the “Reduction in degree of cataractous damage, both eyes (histology score 0-4), relative to control group” value ([3]; 1-Fe 20 mg/kg/day, LPA 50 mg/kg/day) was 32%. The “Cataract damage incidence by histological examination, relative to control group” value ([3]; corrole p=0.073) was “minimal” and the “Body weight change during the treatment phase” value [4] was “significant weight loss”.
For `CC1=C(/C=C/C(C)=C/C=C/C(C)=C/C=C/C=C(C)/C=C/C=C(C)/C=C/C2=C(C)CCCC2(C)C)C(C)(C)CCC1` [beta-carotene], the “Effect on the development of cataract” value (development of cataract) is given as “no significant effect”.
In the case of `COc1cc(/C=C/C(=O)CC(=O)/C=C/c2ccc(O)c(OC)c2)ccc1O` [curcumin], the “Treating DN in a rat model” value (DN in a rat model) is listed as “not successful”.
In the case of `O=C1O[C@H]([C@@H](O)CO)C(O)=C1O` [vitamin C], the “Effect on the development of cataract” value (development of cataract) is given as “no significant effect”.
For vitamin E, the “Effect on the development of cataract” value (development of cataract) is given as “no significant effect”.

— US9572816B2, “Method of treatment of disease” (TECHNION RESEARCH AND DEVELOPMENT FOUNDATION LTD., priority 2012, dated 2017)
